{"source": "patent US20030086923A1", "about": "“Method for the prevention and/or treatment of atherosclerosis” (priority 1999, published 2003)", "key": {"[1]": {"biological_target": "T1, human GST-LXRβ ligand binding domain receptor (Homo sapiens, UniProt P55055)", "T1 construct": "human LXRβ (amino acids 149-455) were subcloned into the pGEX-KT expression vector; made in house; host or cells: E. coli (pGEX-KT vector)", "T1 sequence (P55055 149-455)": "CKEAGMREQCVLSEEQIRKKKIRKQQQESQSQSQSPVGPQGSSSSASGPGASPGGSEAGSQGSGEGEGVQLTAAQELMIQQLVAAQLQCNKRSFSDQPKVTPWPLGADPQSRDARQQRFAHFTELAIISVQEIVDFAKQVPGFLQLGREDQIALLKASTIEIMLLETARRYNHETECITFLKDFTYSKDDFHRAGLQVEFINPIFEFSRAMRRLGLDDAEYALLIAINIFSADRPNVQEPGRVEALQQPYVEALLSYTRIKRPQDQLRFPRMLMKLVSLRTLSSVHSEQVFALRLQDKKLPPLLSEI", "experiment": "Radioligand competition binding scintillation proximity assay, LXRβ", "text": "Radioligand Competition Binding Scintillation Proximity Assays:\nPreparation of Recombinant Human LXRα and LXRβ:\nHuman LXRα and LXRβ were expressed as GST-fusion proteins in E. coli. The ligand binding domain cDNAs for human LXRα (amino acids 164-447) and human LXRβ (amino acids 149-455) were subcloned into the pGEX-KT expression vector (Pharmacia). E. coli containing the respective plasmids were propagated, induced, and harvested by centrifugation. The resuspended pellet was broken in a French press and debris was removed by centrifugation. Recombinant human LXR receptors were purified by affinity chromatography on glutathione sepharose and receptor was eluted with glutathione. Glycerol was added to a final concentration of 50% to stabilize the receptor and aliquots were stored at −80° C.\nAfter incubation for ˜16 h at 15° C. with shaking, the assay plates were counted in a Packard Topcount."}, "human PPARδ": {"biological_target": "T2, human PPARδ (Homo sapiens, UniProt Q03181)", "T2 sequence (Q03181 1-441)": "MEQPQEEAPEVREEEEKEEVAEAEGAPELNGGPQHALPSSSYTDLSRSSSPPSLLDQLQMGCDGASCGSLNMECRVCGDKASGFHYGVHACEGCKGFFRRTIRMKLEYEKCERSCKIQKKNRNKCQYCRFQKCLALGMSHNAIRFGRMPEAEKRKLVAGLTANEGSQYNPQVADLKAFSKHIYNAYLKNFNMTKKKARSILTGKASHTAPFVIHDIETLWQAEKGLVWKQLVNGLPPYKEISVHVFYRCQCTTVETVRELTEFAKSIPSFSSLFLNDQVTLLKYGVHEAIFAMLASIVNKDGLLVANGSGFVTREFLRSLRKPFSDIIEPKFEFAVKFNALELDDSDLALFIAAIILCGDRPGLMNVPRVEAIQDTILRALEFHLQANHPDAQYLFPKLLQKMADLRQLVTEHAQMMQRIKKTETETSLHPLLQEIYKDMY", "experiment": "PPARδ competition binding assay", "text": "(§1) The term ligand throughout this application should be understood to include an agonist, partial agonist or antagonist of LXR. The ligand may be selective for LXRα or LXRβ, or it may have mixed binding affinity for both LXRα and LXRβ. Particularly, compounds within the scope of this invention include those which have greater selectivity as determined by binding affinity for LXRα and/or LXRβ receptors than they have for each of the PPARα, γ and δ receptors."}, "human PPARα": {"biological_target": "T3, human PPARα (Homo sapiens, UniProt Q07869)", "T3 sequence (Q07869 1-468)": "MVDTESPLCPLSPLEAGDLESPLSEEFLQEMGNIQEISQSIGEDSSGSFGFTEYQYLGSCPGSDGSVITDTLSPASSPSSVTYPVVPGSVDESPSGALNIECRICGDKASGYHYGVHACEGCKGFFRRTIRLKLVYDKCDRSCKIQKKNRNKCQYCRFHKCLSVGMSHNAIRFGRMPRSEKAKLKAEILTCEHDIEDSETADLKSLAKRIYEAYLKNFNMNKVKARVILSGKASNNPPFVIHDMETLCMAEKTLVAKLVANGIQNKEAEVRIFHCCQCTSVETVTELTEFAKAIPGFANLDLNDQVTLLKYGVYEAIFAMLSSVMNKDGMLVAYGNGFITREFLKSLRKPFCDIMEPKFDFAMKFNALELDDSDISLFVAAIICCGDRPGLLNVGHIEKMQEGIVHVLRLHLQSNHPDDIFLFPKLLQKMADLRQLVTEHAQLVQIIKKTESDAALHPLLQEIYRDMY", "experiment": "PPARα competition binding assay", "text": "as §1"}, "[2]": {"system": "cholesterol-loaded THP-1 macrophages", "experiment": "Stimulation of cholesterol efflux from cholesterol-loaded THP-1 macrophages", "type": "cell-based, human", "conditions": "1 μM, 24 hours, mean±SEM", "text": "Stimulation of Cholesterol Efflux from Cholesterol-Loaded Cells\nTo determine if LXR agonists could increase cholesterol efflux in cells that were loaded with excess cholesterol, THP-1 cells were loaded with cholesterol using acetylated LDL prior to the assay of cholesterol efflux Specifically, cultured human THP-1 cells were stimulated to differentiate into macrophages as described above. After differentiation, the THP-1 macrophages were loaded with cholesterol and simultaneously labeled with ^3H-cholesterol using acetylated LDL containing ^3H-cholesterol essentially as described by Kritharides et al. (1998) Arterioscler Thromb Vasc Biol. 18:1589-1599. After 24 hours of incubation with 100 μg/ml of acetylated LDL labelled with ^3H-cholesterol, the cells were incubated in Complete RPMI medium containing 0.1% lipid-free BSA for 24 hours to allow for equilibration of cellular cholesterol pools. Cholesterol efflux was then measured over the following 24 hours by incubating the cells in Complete RPMI medium with either apoA-I or HDL as cholesterol acceptor, and with either 1 μM Compound 1 or DMSO as control."}}, "data": [{"compound": "CC(=O)Oc1ccc2c(c1)[C@@]1(C)CCC[C@](C)(C(=O)OC(=O)[C@@]3(C)CCC[C@]4(C)c5cc(OC(C)=O)ccc5CC[C@@H]34)[C@@H]1CC2", "note": "[Compound 1]", "values": [{"measurement": "IC50", "setting": "[1]", "result": 40, "unit": "nM"}, {"measurement": "Ki", "setting": "[1]; read-out: LXRβ calculated Ki", "result": "~14", "unit": "nM"}, {"measurement": "IC50", "setting": "human PPARδ", "result": "> 10000", "unit": "nM"}, {"measurement": "IC50", "setting": "human PPARα", "result": "> 10000", "unit": "nM"}, {"measurement": "Cholesterol efflux (% of cell contents)", "setting": "[2]; acceptor 10 μg/ml apoA-I, DMSO control 6.4 ± 0.3", "result": "10.3 ± 0.4 % of cell contents"}, {"measurement": "Cholesterol efflux (% of cell contents)", "setting": "[2]; acceptor 25 μg/ml HDL, DMSO control 14.9 ± 0.5", "result": "18.6 ± 0.7 % of cell contents"}]}]}
